Results taken from ChEMBL document CHEMBL1795255, “Discovery and optimization of potent and selective benzonaphthyridinone analogs as small molecule mTOR inhibitors with improved mouse microsome stability” (Bioorg Med Chem Lett, 2011).
Each block holds one compound with its values, some of them ahead of it.

Experiments:
[1] = Inhibition of PI3K-dependent Akt phosphorylation at T308 residue in human PC3 cells; format: cell-based; details: PC-3
[2] = biological target: Serine/threonine-protein kinase mTOR (Mus musculus, UniProt Q9JLN9); assay: Inhibition of mTOR-dependent S6K phosphorylation at T389 residue in MEF cells; format: cell-based
[3] = Inhibition of mTORC1
Mus musculus [4] = assay: (§1) Volume of distribution at steady state in iv dosed mouse; format: ADME, organism-based; details: in vivo
Mus musculus [5] = assay: (§2) Cmax in iv dosed mouse; format: ADME, organism-based; set-up: route intravenous; details: in vivo
Mus musculus [6] = assay: (§3) Tmax in po dosed mouse; format: ADME, organism-based; details: in vivo
[7] = AUC (0 to infinity) in iv dosed mouse; format: ADME, organism-based; set-up: time infinity, route intravenous; details: plasma
[8] = AUC (0 to infinity) in po dosed mouse; format: ADME, organism-based; set-up: route oral, time infinity; details: plasma
Mus musculus [9] = assay: (§4) Cmax in po dosed mouse; format: ADME, organism-based; set-up: route oral; details: in vivo
[10] = as §1; format: ADME, organism-based; details: in vivo, read-out: Vdss
[11] = as §2; format: ADME, organism-based; set-up: route intravenous; details: in vivo
[12] = as §3; format: ADME, organism-based; details: in vivo
[13] = Clearance in iv dosed mouse; format: ADME, organism-based; details: in vivo
[14] = Half life in iv dosed mouse; format: ADME, organism-based; details: in vivo
[15] = Oral bioavailability in mouse; format: ADME, organism-based; details: in vivo
[16] = as §4; format: ADME, organism-based; set-up: route oral; details: in vivo
[17] = Metabolic stability in mouse microsomes in presence of NADPH; format: ADME, Microsome; details: read-out: Stability
CYP3A4 = CYP3A4 (Homo sapiens, UniProt P08684); assay: Inhibition of CYP3A4 at 10 uM; format: ADME
CYP3A4, sequence (P08684 whole entry, the tested form may be a part): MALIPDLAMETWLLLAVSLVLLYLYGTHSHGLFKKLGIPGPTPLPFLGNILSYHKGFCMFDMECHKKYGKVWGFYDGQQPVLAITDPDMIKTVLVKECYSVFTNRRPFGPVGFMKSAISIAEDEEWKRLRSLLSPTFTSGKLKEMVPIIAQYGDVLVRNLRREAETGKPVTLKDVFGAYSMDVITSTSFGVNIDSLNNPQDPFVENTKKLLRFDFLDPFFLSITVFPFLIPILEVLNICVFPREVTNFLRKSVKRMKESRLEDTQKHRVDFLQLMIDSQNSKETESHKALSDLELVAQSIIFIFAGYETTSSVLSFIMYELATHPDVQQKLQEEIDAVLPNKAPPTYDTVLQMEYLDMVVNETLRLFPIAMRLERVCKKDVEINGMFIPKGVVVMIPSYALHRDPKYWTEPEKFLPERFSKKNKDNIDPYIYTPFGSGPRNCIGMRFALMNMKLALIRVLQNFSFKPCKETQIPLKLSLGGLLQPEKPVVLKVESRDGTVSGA

[18] = biological target: Phosphatidylinositol 4-phosphate 3-kinase C2 domain-containing subunit alpha (Homo sapiens, UniProt O00443); assay: Inhibition of PI3K C2alpha
[19] = biological target: Phosphatidylinositol 4-phosphate 3-kinase C2 domain-containing subunit beta (Homo sapiens, UniProt O00750); assay: Inhibition of PI3K C2beta
Phosphatidylinositol 4-phosphate 3-kinase C2 domain-containing subunit beta, sequence (O00750 whole entry, the tested form may be a part): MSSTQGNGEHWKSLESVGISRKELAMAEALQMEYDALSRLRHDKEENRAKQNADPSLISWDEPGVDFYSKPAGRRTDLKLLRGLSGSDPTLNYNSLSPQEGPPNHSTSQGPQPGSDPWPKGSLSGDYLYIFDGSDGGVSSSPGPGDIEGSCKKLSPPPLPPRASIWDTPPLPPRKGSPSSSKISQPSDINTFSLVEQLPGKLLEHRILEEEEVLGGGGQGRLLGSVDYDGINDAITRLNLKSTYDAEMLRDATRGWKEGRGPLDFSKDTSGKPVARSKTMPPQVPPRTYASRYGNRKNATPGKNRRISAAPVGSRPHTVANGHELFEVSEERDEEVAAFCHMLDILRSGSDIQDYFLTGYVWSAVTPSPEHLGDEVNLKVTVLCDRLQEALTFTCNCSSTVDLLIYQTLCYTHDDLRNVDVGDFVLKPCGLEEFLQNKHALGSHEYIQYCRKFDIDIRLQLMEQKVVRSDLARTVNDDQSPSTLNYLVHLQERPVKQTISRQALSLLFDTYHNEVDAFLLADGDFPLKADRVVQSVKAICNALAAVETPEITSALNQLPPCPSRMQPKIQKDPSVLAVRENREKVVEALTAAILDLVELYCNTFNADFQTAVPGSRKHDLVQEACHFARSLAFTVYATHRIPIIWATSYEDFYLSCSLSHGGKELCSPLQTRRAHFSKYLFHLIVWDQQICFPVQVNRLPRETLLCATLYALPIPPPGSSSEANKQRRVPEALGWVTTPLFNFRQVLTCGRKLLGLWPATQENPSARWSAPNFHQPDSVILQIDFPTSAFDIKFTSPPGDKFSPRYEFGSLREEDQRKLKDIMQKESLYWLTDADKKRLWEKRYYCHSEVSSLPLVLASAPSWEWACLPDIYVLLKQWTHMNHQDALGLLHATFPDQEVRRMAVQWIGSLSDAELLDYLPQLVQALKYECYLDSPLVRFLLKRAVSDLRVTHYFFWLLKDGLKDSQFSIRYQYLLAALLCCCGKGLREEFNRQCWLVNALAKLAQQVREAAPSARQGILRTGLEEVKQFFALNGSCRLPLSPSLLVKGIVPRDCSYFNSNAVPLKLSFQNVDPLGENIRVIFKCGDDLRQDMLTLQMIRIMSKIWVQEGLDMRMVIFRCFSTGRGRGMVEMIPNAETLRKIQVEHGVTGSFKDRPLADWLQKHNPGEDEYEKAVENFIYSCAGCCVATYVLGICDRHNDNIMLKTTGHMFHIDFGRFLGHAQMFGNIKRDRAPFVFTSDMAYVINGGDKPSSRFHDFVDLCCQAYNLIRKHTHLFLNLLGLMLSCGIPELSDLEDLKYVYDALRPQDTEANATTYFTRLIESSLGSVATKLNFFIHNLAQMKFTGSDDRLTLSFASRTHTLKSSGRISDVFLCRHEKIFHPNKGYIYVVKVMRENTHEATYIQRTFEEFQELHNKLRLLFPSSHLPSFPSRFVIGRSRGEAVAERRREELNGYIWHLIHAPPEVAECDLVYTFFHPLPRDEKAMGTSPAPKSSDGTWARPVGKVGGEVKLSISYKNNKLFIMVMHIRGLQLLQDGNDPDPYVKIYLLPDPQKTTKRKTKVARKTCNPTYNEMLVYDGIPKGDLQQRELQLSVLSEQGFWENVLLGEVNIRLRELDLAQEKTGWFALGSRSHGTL

[20] = biological target: PI3-kinase p110-alpha/p85-alpha (Homo sapiens, UniProt P42336); assay: Inhibition of P110alpha/p85alpha; format: protein-complex assay
[21] = biological target: Phosphatidylinositol 4-kinase alpha (Homo sapiens, UniProt P42356); assay: Inhibition of PI4K alpha
Phosphatidylinositol 4-kinase alpha, sequence (P42356 whole entry): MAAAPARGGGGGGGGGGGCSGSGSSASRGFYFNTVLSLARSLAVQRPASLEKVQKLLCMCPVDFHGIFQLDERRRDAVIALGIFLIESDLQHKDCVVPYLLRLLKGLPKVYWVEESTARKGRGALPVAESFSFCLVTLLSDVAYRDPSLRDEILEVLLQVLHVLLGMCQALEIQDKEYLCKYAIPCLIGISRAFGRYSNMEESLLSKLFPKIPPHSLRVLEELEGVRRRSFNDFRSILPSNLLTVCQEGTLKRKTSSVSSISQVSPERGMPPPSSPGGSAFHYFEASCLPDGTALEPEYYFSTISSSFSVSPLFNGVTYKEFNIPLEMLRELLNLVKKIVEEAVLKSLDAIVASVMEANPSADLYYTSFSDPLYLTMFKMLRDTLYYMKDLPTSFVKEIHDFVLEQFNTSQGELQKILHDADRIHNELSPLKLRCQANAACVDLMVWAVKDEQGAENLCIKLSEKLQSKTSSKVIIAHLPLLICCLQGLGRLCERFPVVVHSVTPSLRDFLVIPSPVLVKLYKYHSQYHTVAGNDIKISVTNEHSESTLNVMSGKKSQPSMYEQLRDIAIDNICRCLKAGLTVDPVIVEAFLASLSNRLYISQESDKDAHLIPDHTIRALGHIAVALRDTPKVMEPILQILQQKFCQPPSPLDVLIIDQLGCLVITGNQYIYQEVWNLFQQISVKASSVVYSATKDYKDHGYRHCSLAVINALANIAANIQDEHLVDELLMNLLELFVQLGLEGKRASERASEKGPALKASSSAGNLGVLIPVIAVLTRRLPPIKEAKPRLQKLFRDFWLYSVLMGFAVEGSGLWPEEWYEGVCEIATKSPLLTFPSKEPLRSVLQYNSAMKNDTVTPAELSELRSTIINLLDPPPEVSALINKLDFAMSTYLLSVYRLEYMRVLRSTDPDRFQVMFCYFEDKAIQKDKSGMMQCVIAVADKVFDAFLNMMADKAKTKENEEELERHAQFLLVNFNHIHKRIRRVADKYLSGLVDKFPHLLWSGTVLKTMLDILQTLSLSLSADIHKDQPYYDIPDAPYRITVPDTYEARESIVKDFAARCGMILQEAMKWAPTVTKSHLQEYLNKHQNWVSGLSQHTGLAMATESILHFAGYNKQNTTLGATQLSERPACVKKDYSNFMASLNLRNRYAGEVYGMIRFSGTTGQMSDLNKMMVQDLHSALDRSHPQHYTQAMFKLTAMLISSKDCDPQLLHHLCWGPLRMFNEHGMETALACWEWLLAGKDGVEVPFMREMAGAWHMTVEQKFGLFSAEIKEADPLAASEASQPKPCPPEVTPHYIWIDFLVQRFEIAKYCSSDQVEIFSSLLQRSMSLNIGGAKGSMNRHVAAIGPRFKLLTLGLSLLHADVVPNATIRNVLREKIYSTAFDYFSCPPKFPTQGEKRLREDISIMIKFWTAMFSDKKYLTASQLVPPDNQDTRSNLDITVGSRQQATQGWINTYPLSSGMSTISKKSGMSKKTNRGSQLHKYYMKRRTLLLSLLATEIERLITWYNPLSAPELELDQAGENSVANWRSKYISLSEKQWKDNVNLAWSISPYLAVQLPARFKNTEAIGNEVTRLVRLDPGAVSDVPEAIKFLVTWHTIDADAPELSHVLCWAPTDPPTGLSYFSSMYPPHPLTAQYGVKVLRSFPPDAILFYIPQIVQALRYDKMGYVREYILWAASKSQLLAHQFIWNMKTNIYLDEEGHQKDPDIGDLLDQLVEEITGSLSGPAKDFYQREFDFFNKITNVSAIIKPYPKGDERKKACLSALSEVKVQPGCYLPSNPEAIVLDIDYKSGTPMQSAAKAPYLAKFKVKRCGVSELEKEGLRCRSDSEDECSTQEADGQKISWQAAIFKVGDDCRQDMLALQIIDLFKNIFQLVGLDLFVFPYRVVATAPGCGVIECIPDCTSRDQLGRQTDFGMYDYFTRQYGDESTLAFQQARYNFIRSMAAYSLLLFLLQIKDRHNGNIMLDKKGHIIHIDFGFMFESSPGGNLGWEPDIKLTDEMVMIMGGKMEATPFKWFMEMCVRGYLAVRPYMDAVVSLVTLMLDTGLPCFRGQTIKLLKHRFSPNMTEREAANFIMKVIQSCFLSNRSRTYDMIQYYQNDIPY

[22] = biological target: Phosphatidylinositol 4-kinase beta (Homo sapiens, UniProt Q9UBF8); assay: Inhibition of PI4K beta
[23] = biological target: T1, Serine/threonine-protein kinase mTOR (Homo sapiens, UniProt P42345); assay: Inhibition of mTOR-dependent S6K phosphorylation at T389 residue in liver at 20 mg/kg after 6 hrs by in vivo pharmacodynamic study; format: organism-based; set-up: dose 20 mg/kg
[24] = biological target: T1, Serine/threonine-protein kinase mTOR; assay: Inhibition of mTOR-dependent AKT phosphorylation at S473 residue in lung at 20 mg/kg after 6 hrs by in vivo pharmacodynamic study; format: organism-based; set-up: dose 20 mg/kg
[25] = biological target: Phosphatidylinositol 3-kinase catalytic subunit type 3 (Homo sapiens, UniProt Q8NEB9); assay: Inhibition of human VPS34
Phosphatidylinositol 3-kinase catalytic subunit type 3, sequence (Q8NEB9 whole entry): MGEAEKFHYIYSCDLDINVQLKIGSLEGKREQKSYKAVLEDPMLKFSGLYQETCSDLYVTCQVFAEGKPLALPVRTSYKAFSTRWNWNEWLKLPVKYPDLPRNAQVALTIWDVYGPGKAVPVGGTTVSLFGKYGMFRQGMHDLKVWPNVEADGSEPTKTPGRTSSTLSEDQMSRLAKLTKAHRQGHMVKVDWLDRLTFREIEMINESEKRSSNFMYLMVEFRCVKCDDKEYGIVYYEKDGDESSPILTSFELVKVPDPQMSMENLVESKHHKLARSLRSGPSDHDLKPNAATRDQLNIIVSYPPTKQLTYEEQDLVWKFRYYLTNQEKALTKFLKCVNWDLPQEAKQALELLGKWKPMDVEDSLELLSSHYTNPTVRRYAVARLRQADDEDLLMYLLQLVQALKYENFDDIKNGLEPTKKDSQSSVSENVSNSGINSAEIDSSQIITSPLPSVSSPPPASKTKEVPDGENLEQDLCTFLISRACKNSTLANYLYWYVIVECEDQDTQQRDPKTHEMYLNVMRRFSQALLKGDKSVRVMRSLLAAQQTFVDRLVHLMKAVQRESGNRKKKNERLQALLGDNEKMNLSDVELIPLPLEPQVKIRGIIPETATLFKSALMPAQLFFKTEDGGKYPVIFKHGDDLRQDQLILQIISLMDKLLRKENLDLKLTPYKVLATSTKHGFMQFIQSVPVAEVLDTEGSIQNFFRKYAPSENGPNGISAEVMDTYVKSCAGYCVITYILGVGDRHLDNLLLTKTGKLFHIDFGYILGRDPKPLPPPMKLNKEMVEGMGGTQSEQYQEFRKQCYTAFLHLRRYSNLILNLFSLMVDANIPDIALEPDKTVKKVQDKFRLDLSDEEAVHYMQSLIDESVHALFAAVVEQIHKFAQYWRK

[26] = biological target: T1, Serine/threonine-protein kinase mTOR; assay: Inhibition of mTOR-dependent AKT phosphorylation at S473 residue in liver at 20 mg/kg after 6 hrs by in vivo pharmacodynamic study; format: organism-based; set-up: dose 20 mg/kg
[27] = biological target: T1, Serine/threonine-protein kinase mTOR; assay: Inhibition of mTOR
[28] = biological target: T1, Serine/threonine-protein kinase mTOR; assay: Inhibition of mTOR-dependent S6K phosphorylation at T389 residue in lung at 20 mg/kg after 6 hrs by in vivo pharmacodynamic study; format: organism-based; set-up: dose 20 mg/kg

EC50 [1]: > 0.3 µM
EC50 [2]: 0.2 µM
IC50 [3]: 0.299 µM
Structure (SMILES): COC(=O)c1ccc(-c2ccc(-n3c(=O)ccc4cnc5ccc(-c6cnc7ccccc7c6)cc5c43)cc2C(F)(F)F)cc1

EC50 [1]: > 0.3 µM
EC50 [2]: 0.02 µM
IC50 [3]: 0.0229 µM
Structure (SMILES): O=C(O)c1ccc(-c2ccc(-n3c(=O)ccc4cnc5ccc(-c6cnc7ccccc7c6)cc5c43)cc2C(F)(F)F)cc1

Vdss (Mus musculus [4]): 0.59 L/kg
Cmax (Mus musculus [5]): 2757 ng/mL
Tmax (Mus musculus [6]): 0.25 h
AUC(0-inf) [7]: 720 ng·h/mL
AUC(0-inf) [8]: 396 ng·h/mL
Cmax (Mus musculus [9]): 223 ng/mL
Structure (SMILES): CCC(=O)N1CCN(c2ccc(-n3c(=O)ccc4cnc5ccc(-c6cnc7ccccc7c6)cc5c43)cc2C(F)(F)F)CC1 [TORIN1]

EC50 [1]: 1 µM
EC50 [2]: 0.01 µM
IC50 [3]: 0.0141 µM
Structure (SMILES): CN1CCC(NC(=O)c2ccc(-c3ccc(-n4c(=O)ccc5cnc6ccc(-c7cn[nH]c7)cc6c54)cc3C(F)(F)F)cc2)CC1

EC50 [1]: > 1.25 µM
EC50 [2]: 0.15 µM
IC50 [3]: 0.283 µM
Structure (SMILES): Cc1cc(-n2c(=O)ccc3cnc4ccc(-c5cnn(C)c5)cc4c32)ccc1-c1ccc(C(=O)NC2CCN(C)CC2)cc1

Vd [10]: 1.82 L/kg
Cmax [11]: 1050 ng/mL
Tmax [12]: 1 h
AUC(0-inf) [7]: 737 ng·h/mL
clearance [13]: 22.6 mL/min/kg
half-life [14]: 1.85 h
EC50 [1]: 1 µM
EC50 [2]: 0.001 µM
bioavailability [15]: 5.4%
AUC(0-inf) [8]: 391 ng·h/mL
IC50 [3]: 0.0145 µM
Cmax [16]: 115 ng/mL
half-life [17]: 0.7 h
inhibition at 10 µM (CYP3A4): 34%
Structure (SMILES): Cc1cc(-n2c(=O)ccc3cnc4ccc(-c5cnc6ccccc6c5)cc4c32)ccc1-c1ccc(C(=O)NC2CCN(C)CC2)cc1

EC50 [1]: 1 µM
EC50 [2]: 0.01 µM
IC50 [3]: 0.0432 µM
Structure (SMILES): CN1CCC(NC(=O)c2ccc(-c3ccc(-n4c(=O)ccc5cnc6ccc(-c7cnc(N)nc7)cc6c54)cc3C(F)(F)F)cc2)CC1

EC50 [1]: > 0.3 µM
EC50 [2]: 0.03 µM
IC50 [3]: 0.0173 µM
Structure (SMILES): O=c1ccc2cnc3ccc(-c4cnc5ccccc5c4)cc3c2n1-c1ccc(-c2ccc(CO)cc2)c(C(F)(F)F)c1

EC50 [1]: > 0.3 µM
EC50 [2]: 0.015 µM
IC50 [3]: 0.0102 µM
Structure (SMILES): CNC(=O)c1ccc(-c2ccc(-n3c(=O)ccc4cnc5ccc(-c6cnc7ccccc7c6)cc5c43)cc2C(F)(F)F)cc1

EC50 [1]: 1 µM
EC50 [2]: 0.025 µM
IC50 [3]: 0.0189 µM
Structure (SMILES): Cc1cc(-n2c(=O)ccc3cnc4ccc(-c5cnc6[nH]ccc6c5)cc4c32)ccc1-c1ccc(C(=O)NC2CCN(C)CC2)cc1

EC50 [1]: > 0.3 µM
EC50 [2]: 0.025 µM
IC50 [3]: 0.188 µM
Structure (SMILES): O=c1ccc2cnc3ccc(-c4cnc5ccccc5c4)cc3c2n1-c1ccc(-c2ccc(COC3CCCCO3)cc2)c(C(F)(F)F)c1 (stereo not drawn)

EC50 [1]: > 0.3 µM
EC50 [2]: 0.025 µM
IC50 [3]: 0.0563 µM
Structure (SMILES): NC(=O)c1ccc(-c2ccc(-n3c(=O)ccc4cnc5ccc(-c6cnc7ccccc7c6)cc5c43)cc2C(F)(F)F)cc1

Vd [10]: 1.95 L/kg
Cmax [11]: 1410 ng/mL
IC50 [18]: 1.11 µM
Tmax [12]: 4 h
IC50 [19]: 0.437 µM
AUC(0-inf) [7]: 1390 ng·h/mL
clearance [13]: 11.9 mL/min/kg
IC50 [20]: 0.922 µM
half-life [14]: 3.61 h
EC50 [2]: 0.005 µM
IC50 [21]: > 10 µM
bioavailability [15]: 10.1%
AUC(0-inf) [8]: 1410 ng·h/mL
IC50 [22]: 3.44 µM
inhibition [23]: 80%
inhibition [24]: 80%
IC50 [3]: 0.0217 µM
Cmax [16]: 191 ng/mL
half-life [17]: 0.767 h
inhibition at 10 µM (CYP3A4): 61%
IC50 [25]: 0.17 µM
inhibition [26]: 80%
IC50 [27]: 0.00301 µM
inhibition [28]: 80%
Structure (SMILES): CN1CCC(NC(=O)c2ccc(-c3ccc(-n4c(=O)ccc5cnc6ccc(-c7cnc8ccccc8c7)cc6c54)cc3C(F)(F)F)cc2)CC1

EC50 [1]: > 1.25 µM
EC50 [2]: 0.05 µM
IC50 [3]: 0.0398 µM
Structure (SMILES): Cc1cc(-n2c(=O)ccc3cnc4ccc(-c5ccc(N)nc5)cc4c32)ccc1-c1ccc(C(=O)NC2CCN(C)CC2)cc1

EC50 [1]: > 1.25 µM
EC50 [2]: > 1 µM
IC50 [3]: > 3 µM
Structure (SMILES): Cc1cc(-n2c(=O)ccc3cnc4ccccc4c32)ccc1-c1ccc(C(=O)NC2CCN(C)CC2)cc1

EC50 [1]: > 1.25 µM
EC50 [2]: 0.15 µM
IC50 [3]: 0.0381 µM
Structure (SMILES): Cc1cc(-n2c(=O)ccc3cnc4ccc(-c5cn[nH]c5)cc4c32)ccc1-c1ccc(C(=O)NC2CCN(C)CC2)cc1
